According to paper PMC12511196 (European Journal of Clinical Pharmacology, 2025):

What was measured:
serotonin reuptake = settings: cited from earlier work
[1] = cited from earlier work
[2] = cited from earlier work; remark: listed apart in the source
[3] = Treatment switch from fluoxetine to an alternative antidepressant (proxy for therapeutic failure) by CYP2D6 phenotype; type: in vivo, human; settings: adult patients; for Switch to alternative antidepressant, Frequency (%): within one year after last fluoxetine measurement
Source text: Consequently, an antidepressant switch was used as a proxy marker for therapeutic failure, regardless of the cause.
IBM SPSS Statistics version 28.0.1.1 (SPSS Inc, Chicago, IL) was used for statistical analysis and graphical presentations. Continuous variables were reported as median (range). The associations between CYP2D6 phenotype and pharmacokinetic measures such as absolute concentrations, C/D ratios and metabolic ratios were examined using Kruskal–Wallis test followed by Bonferroni-corrected Dunn’s test using CYP2D6 NMs as reference group. […] A p value below 0.05 was considered statistically significant.

CYP2D6 = settings: cited from earlier work

Row | Compound | Potency as SSRI relative to R-norfluoxetine (serotonin reuptake) | Elimination half-life [1] | Distribution to the brain [2] | Switch to alternative antidepressant where genotyping was not performed within the switch period, Frequency (%) ([3]; CYP2D6 IMs (n = 347)) | Switch to alternative antidepressant where genotyping was not performed within the switch period, Frequency (%) ([3]; CYP2D6 NMs (n = 587)) | Switch to alternative antidepressant where genotyping was not performed within the switch period, Frequency (%) ([3]; CYP2D6 PMs (n = 68)) | Switch to alternative antidepressant where genotyping was not performed within the switch period, Frequency (%) ([3]; CYP2D6 UMs (n = 25)) | Switch to alternative antidepressant where genotyping was not performed within the switch period, Frequency (%) ([3]; Total (n = 1027)) | Switch to alternative antidepressant, Frequency (%) ([3]; CYP2D6 IMs (n = 347)) | Switch to alternative antidepressant, Frequency (%) ([3]; CYP2D6 NMs (n = 587)) | Switch to alternative antidepressant, Frequency (%) ([3]; CYP2D6 PMs (n = 68)) | Switch to alternative antidepressant, Frequency (%) ([3]; CYP2D6 UMs (n = 25)) | Switch to alternative antidepressant, Frequency (%) ([3]; Total (n = 1027)) | Type of CYP2D6 inhibition (CYP2D6)
1 | NCC[C@H](Oc1ccc(C(F)(F)F)cc1)c1ccccc1 [S-norfluoxetine] | approximately 20 times | – | – | – | – | – | – | – | – | – | – | – | – | –
2 | CNCCC(Oc1ccc(C(F)(F)F)cc1)c1ccccc1 (stereo not drawn) [fluoxetine] | – | one to four | more distributed to the brain than norfluoxetine | 6.3 | 6.6 | 10.3 | 12.0 | 6.9 | 8.6 | 8.3 | 19.1 | 24.0 | 9.5 | competitive and reversible inhibitors
3 | NCCC(Oc1ccc(C(F)(F)F)cc1)c1ccccc1 (stereo not drawn) [norfluoxetine] | – | – | – | – | – | – | – | – | – | – | – | – | – | competitive and reversible inhibitors
